# Assay results as given in publication PMC5986738, “Thiazole Amides, A Novel Class of Algaecides against Freshwater Harmful Algae” (Scientific Reports, 2018).
# Tests used:
# S. obliqnus = assay: Algicidal activity (growth inhibition, microplate, absorbance 650 nm) against S. obliqnus; format: cell-based; settings: 96-hour IC50, mean ± SD; for IC50: 96 h, read-out: IC50 value S. obliqnus
# Protocol: (§1) According to the method established by Schrader et al.[42], algicidal activity of alkaloid (1) and its amide analogues (7–32), as well as their hydrochloric salts (7S–27S), was evaluated against three typical […] algae, S. obliqnus, M. aeruginosa, and C. Pyrenoidosa at different concentrations. After three algae species were inoculated, the variation of algae density over 7 days were recorded continuously. […] The wavelength at 650 nm was determined as ideal incident wavelength for the measurement of algae density. Three […] algae S. obliqnus, M. aeruginosa, and C. pyrenoidosa were offered by Freshwater algae culture collection of the institute of Hydrobiology (FACHB-collection). Each culture for three species was maintained separately in continuous, steady-state growth microplates, which were placed in a growth chamber held at 28 ± 1 °C and illuminated continuously under fluorescent lights at a photon flux density of […]. Absorbance values of each wells were measured by a Packard model Spectra Count microplate photometer.
# (§2) Alkaloid (1) and its analogues (7–32), as well as their hydrochloric salts (7S–27S), were dissolved separately in DMSO to provide stock solution concentrations. Initially, each stock solution was aseptically pipetted into the bottom of separate wells (20 μL per well) in a 96-well microplate and the final test concentrations for each sample were 0, 0.78, 1.56, 3.12, 6.25, 12.5, and 25 μg/mL. Wells of control samples contained only unialgal culture. The solution of CuSO4 and Diuron at the same concentration were chose as the reference sample. Each experiment was performed at least three times. Through measuring the area values under the individual growth curves, the inhibitory rate (%) for the individual tested concentration was calculated according to the following equation (1):1 Ii=(Ac−Ai)/[…]×100% • Ii: inhibitory rate of biomass growth by toxicant concentration i (%) • Ac: average area under the growth curve by control sample • Ai: average area under the growth curve by test concentration i
# (§3) Mean values of 96-hour IC50 were determined for each group of plates, and standard deviation were calculated and reported as the mean ± SD.
# (§4) The IC50 values of all compounds against three freshwater algae species were calculated using SPSS v19.0, and the algicidal activities of alkaloid (1) and its amide analogues (7–32), as well as the corresponding hydrochloric salts (7S–27S) are listed in Table 1 and 2, respectively.
# M. aeruginosa = assay: Algicidal activity (growth inhibition, microplate, absorbance 650 nm) against M. aeruginosa; format: cell-based; settings: for IC50: Microcystis aeruginosa, read-out: IC50 value M. aeruginosa; for IC50 / IC50 value M. aeruginosa: 96-hour IC50, mean ± SD; for growth inhibitory ratio: 3.13 μg/mL
# Protocol: as §1, §2, §3, §4
# Currently, M. aeruginosa appears to be the most harmful algae existing in the freshwater bodies in the developing countries. To investigate growth inhibitory potential of this class of thiazole amides on M. aeruginosa, thiazole amide (10) and its hydrochloric acid salt (10S) were subject to further survey for the optimal inhibition time and concentration (Figs 3 and 4). […] The variation of growth inhibitory ratios of compounds (10) and (10S) against M. aeruginosa at the lowest complete inhibition concentration is illustrated in Fig. 4. As observed, for administration of thiazole amide (10), the growth inhibitory ratios after 96 and 120 hours increase gradually to 79% and 92%, respectively. Under the same experimental conditions, growth inhibitory ratios for the salt (10S) are 82% and 88%, respectively.
# C. pyrenoidosa = assay: Algicidal activity (growth inhibition, microplate, absorbance 650 nm) against C. pyrenoidosa; format: cell-based, Chlorella pyrenoidosa; settings: 96-hour IC50, mean ± SD; for IC50: Auxenochlorella pyrenoidosa, read-out: IC50 value C. pyrenoidosa
# Protocol: as §1, §2, §3, §4
compound,measurement,setting,value
C[C@H](N)c1nc(C(=O)Nc2ccc(Cl)cc2)cs1 [compound 9],IC50,S. obliqnus,4.12 ± 0.13 µg/mL
same,IC50,M. aeruginosa,2.19 ± 0.09 µg/mL
same,IC50,C. pyrenoidosa,1.37 ± 0.12 µg/mL
CCOC(=O)c1ccc(NC(=O)c2csc([C@H](C)N)n2)cc1.Cl [26S],IC50 value S. obliqnus,S. obliqnus,10.60 ± 1.18 µg/mL
same,IC50 value M. aeruginosa,M. aeruginosa,2.46 ± 0.23 µg/mL
same,IC50 value C. pyrenoidosa,C. pyrenoidosa,2.38 ± 0.32 µg/mL
C[C@H](N)c1nc(C(=O)Nc2cccc(Br)c2)cs1.Cl [15S],IC50 value S. obliqnus,S. obliqnus,1.59 ± 0.16 µg/mL
same,IC50 value M. aeruginosa,M. aeruginosa,2.96 ± 0.26 µg/mL
same,IC50 value C. pyrenoidosa,C. pyrenoidosa,2.75 ± 0.30 µg/mL
C[C@H](N)c1nc(C(=O)Nc2ccccc2Cl)cs1 [compound 19],IC50,M. aeruginosa,12.2 ± 1.16 µg/mL
same,IC50,C. pyrenoidosa,8.16 ± 1.34 µg/mL
C[C@H](N)c1nc(C(=O)Nc2ccccc2F)cs1 [compound 18],IC50,S. obliqnus,3.95 ± 0.92 µg/mL
same,IC50,M. aeruginosa,2.55 ± 0.19 µg/mL
same,IC50,C. pyrenoidosa,3.41 ± 0.14 µg/mL
C[C@H](N)c1nc(C(=O)Nc2ccccc2Cl)cs1.Cl [19S],IC50 value S. obliqnus,S. obliqnus,0.14 ± 0.02 µg/mL
same,IC50 value M. aeruginosa,M. aeruginosa,3.07 ± 0.34 µg/mL
same,IC50 value C. pyrenoidosa,C. pyrenoidosa,2.50 ± 0.16 µg/mL
C[C@H](N)c1nc(C(=O)Nc2ccc(F)cc2)cs1.Cl [8S],IC50 value S. obliqnus,S. obliqnus,1.14 ± 0.09 µg/mL
same,IC50 value M. aeruginosa,M. aeruginosa,3.00 ± 0.12 µg/mL
same,IC50 value C. pyrenoidosa,C. pyrenoidosa,2.69 ± 0.23 µg/mL
C[C@H](N)c1nc(C(=O)Nc2ccc(OC(F)(F)F)cc2)cs1 [compound 23],IC50,S. obliqnus,5.93 ± 0.11 µg/mL
same,IC50,M. aeruginosa,7.2 ± 0.71 µg/mL
same,IC50,C. pyrenoidosa,3.8 ± 0.16 µg/mL
C[C@H](N)c1nc(C(=O)Nc2cccc(Cl)c2)cs1.Cl [14S],IC50 value S. obliqnus,S. obliqnus,2.01 ± 0.19 µg/mL
same,IC50 value M. aeruginosa,M. aeruginosa,0.79 ± 0.08 µg/mL
same,IC50 value C. pyrenoidosa,C. pyrenoidosa,0.66 ± 0.06 µg/mL
C[C@H](N)c1nc(C(=O)Nc2ccccc2Br)cs1 [compound 20],IC50,S. obliqnus,3.31 ± 0.13 µg/mL
same,IC50,M. aeruginosa,8.79 ± 1.23 µg/mL
same,IC50,C. pyrenoidosa,2.84 ± 0.93 µg/mL
C[C@H](N)c1nc(C(=O)NC(C)(C)C)cs1 [compound 29],IC50,S. obliqnus,6.23 ± 0.98 µg/mL
same,IC50,M. aeruginosa,5.31 ± 0.45 µg/mL
same,IC50,C. pyrenoidosa,3.46 ± 0.67 µg/mL
C[C@H](N)c1nc(C(=O)Nc2ccc(OC(F)(F)F)cc2)cs1.Cl [23S],IC50 value S. obliqnus,S. obliqnus,4.68 ± 0.38 µg/mL
same,IC50 value M. aeruginosa,M. aeruginosa,4.45 ± 0.58 µg/mL
same,IC50 value C. pyrenoidosa,C. pyrenoidosa,0.66 ± 0.03 µg/mL
Cc1cc(NC(=O)c2csc([C@H](C)N)n2)ccc1F.Cl [25S],IC50 value S. obliqnus,S. obliqnus,16.62 ± 1.48 µg/mL
same,IC50 value M. aeruginosa,M. aeruginosa,1.79 ± 0.22 µg/mL
same,IC50 value C. pyrenoidosa,C. pyrenoidosa,1.59 ± 0.19 µg/mL
Cc1cc(NC(=O)c2csc([C@H](C)N)n2)ccc1F [compound 25],IC50,S. obliqnus,1.81 ± 0.07 µg/mL
same,IC50,M. aeruginosa,6.73 ± 1.21 µg/mL
same,IC50,C. pyrenoidosa,5.1 ± 0.13 µg/mL
C[C@H](N)c1nc(C(=O)Nc2ccccc2F)cs1.Cl [18S],IC50 value S. obliqnus,S. obliqnus,1.12 ± 0.09 µg/mL
same,IC50 value M. aeruginosa,M. aeruginosa,0.26 ± 0.01 µg/mL
same,IC50 value C. pyrenoidosa,C. pyrenoidosa,0.27 ± 0.09 µg/mL
COc1ccc(NC(=O)c2csc([C@H](C)N)n2)cc1.Cl [12S],IC50 value S. obliqnus,S. obliqnus,3.16 ± 0.29 µg/mL
same,IC50 value M. aeruginosa,M. aeruginosa,1.40 ± 0.18 µg/mL
same,IC50 value C. pyrenoidosa,C. pyrenoidosa,2.88 ± 0.39 µg/mL
N-(2-(1H-indol-3-yl)ethyl)-2-acetylthiazole-4-carboxamide [Alkaloid (1)],IC50 value S. obliqnus,S. obliqnus,14.33 ± 1.15 µg/mL
same,IC50 value M. aeruginosa,M. aeruginosa,114.60 ± 3.35 µg/mL
same,IC50 value C. pyrenoidosa,C. pyrenoidosa,381.57 ± 5.16 µg/mL
COc1ccccc1NC(=O)c1csc([C@H](C)N)n1.Cl [22S],IC50 value S. obliqnus,S. obliqnus,1.74 ± 0.24 µg/mL
same,IC50 value M. aeruginosa,M. aeruginosa,1.12 ± 0.16 µg/mL
same,IC50 value C. pyrenoidosa,C. pyrenoidosa,0.35 ± 0.02 µg/mL
CCOC(=O)c1ccc(NC(=O)c2csc([C@H](C)N)n2)cc1 [compound 26],IC50,S. obliqnus,29.5 ± 1.56 µg/mL
same,IC50,M. aeruginosa,3.29 ± 0.21 µg/mL
same,IC50,C. pyrenoidosa,4.16 ± 0.56 µg/mL
C[C@H](N)c1nc(C(=O)Nc2cccc(C(F)(F)F)c2)cs1 [compound 17],IC50,S. obliqnus,9.21 ± 1.12 µg/mL
same,IC50,M. aeruginosa,12.2 ± 2.13 µg/mL
same,IC50,C. pyrenoidosa,10.4 ± 0.99 µg/mL
Cc1ccc(NC(=O)c2csc([C@H](C)N)n2)cc1.Cl [11S],IC50 value S. obliqnus,S. obliqnus,6.83 ± 0.45 µg/mL
same,IC50 value M. aeruginosa,M. aeruginosa,4.34 ± 0.36 µg/mL
same,IC50 value C. pyrenoidosa,C. pyrenoidosa,3.37 ± 0.28 µg/mL
C[C@H](N)c1nc(C(=O)Nc2ccc(Br)cc2)cs1.Cl [10S],growth inhibitory ratio,M. aeruginosa; after 96 hours,82%
same,growth inhibitory ratio,M. aeruginosa; after 120 hours,88%
C[C@H](N)c1nc(C(=O)Nc2ccccc2Br)cs1.Cl [20S],IC50 value S. obliqnus,S. obliqnus,0.68 ± 0.06 µg/mL
same,IC50 value M. aeruginosa,M. aeruginosa,1.23 ± 0.12 µg/mL
same,IC50 value C. pyrenoidosa,C. pyrenoidosa,0.41 ± 0.04 µg/mL
C[C@H](N)c1nc(C(=O)Nc2ccc(C(F)(F)F)cc2)cs1 [compound 13],IC50,S. obliqnus,4.35 ± 0.17 µg/mL
same,IC50,M. aeruginosa,2.36 ± 0.12 µg/mL
same,IC50,C. pyrenoidosa,4.58 ± 0.23 µg/mL
C[C@H](N)c1nc(C(=O)Nc2ccc(F)cc2)cs1 [compound 8],IC50,S. obliqnus,2.74 ± 0.11 µg/mL
same,IC50,M. aeruginosa,4.51 ± 0.92 µg/mL
same,IC50,C. pyrenoidosa,3.57 ± 0.37 µg/mL
C[C@H](N)c1nc(C(=O)Nc2ccc(Cl)c(Cl)c2)cs1.Cl [24S],IC50 value S. obliqnus,S. obliqnus,5.59 ± 0.78 µg/mL
same,IC50 value M. aeruginosa,M. aeruginosa,5.18 ± 0.66 µg/mL
same,IC50 value C. pyrenoidosa,C. pyrenoidosa,3.42 ± 0.32 µg/mL
C[C@H](N)c1nc(C(=O)Nc2ccccc2)cs1.Cl [7S],IC50 value S. obliqnus,S. obliqnus,0.14 ± 0.06 µg/mL
same,IC50 value M. aeruginosa,M. aeruginosa,1.33 ± 0.16 µg/mL
same,IC50 value C. pyrenoidosa,C. pyrenoidosa,2.54 ± 0.28 µg/mL
CC(N)c1nc(C(=O)Nc2cccc(Br)c2)cs1 (centres unmarked) [compound 15],IC50 value M. aeruginosa,M. aeruginosa,4.79 ± 0.15 µg/mL
same,IC50 value C. pyrenoidosa,C. pyrenoidosa,5.77 ± 0.11 µg/mL
C[C@H](N)c1nc(C(=O)Nc2ccc(Cl)cc2)cs1.Cl [9S],IC50 value S. obliqnus,S. obliqnus,4.00 ± 0.34 µg/mL
same,IC50 value M. aeruginosa,M. aeruginosa,1.18 ± 0.21 µg/mL
same,IC50 value C. pyrenoidosa,C. pyrenoidosa,0.40 ± 0.10 µg/mL
Cc1ccc(NC(=O)c2csc([C@H](C)N)n2)cc1 [compound 11],IC50,S. obliqnus,2.66 ± 0.18 µg/mL
same,IC50,M. aeruginosa,6.16 ± 1.13 µg/mL
same,IC50,C. pyrenoidosa,10.4 ± 1.12 µg/mL
CC(N)c1nc(C(=O)Nc2ccccn2)cs1 (centres unmarked) [compound 28],IC50 value S. obliqnus,S. obliqnus,3.97 ± 0.17 µg/mL
same,IC50 value M. aeruginosa,M. aeruginosa,3.09 ± 0.15 µg/mL
same,IC50 value C. pyrenoidosa,C. pyrenoidosa,14.76 ± 1.26 µg/mL
C[C@H](N)c1nc(C(=O)NCCc2ccccc2)cs1 [compound 31],IC50,S. obliqnus,5.98 ± 0.49 µg/mL
same,IC50,M. aeruginosa,57.5 ± 6.26 µg/mL
same,IC50,C. pyrenoidosa,2.84 ± 0.56 µg/mL
Cc1ccccc1NC(=O)c1csc([C@H](C)N)n1.Cl [21S],IC50 value S. obliqnus,S. obliqnus,13.63 ± 1.20 µg/mL
same,IC50 value M. aeruginosa,M. aeruginosa,4.93 ± 045 µg/mL
same,IC50 value C. pyrenoidosa,C. pyrenoidosa,5.15 ± 0.56 µg/mL
C[C@H](N)c1nc(C(=O)Nc2ccc(Cl)c(Cl)c2)cs1 [compound 24],IC50,S. obliqnus,4.31 ± 0.21 µg/mL
same,IC50,M. aeruginosa,9.81 ± 1.13 µg/mL
same,IC50,C. pyrenoidosa,5.11 ± 1.01 µg/mL
"O=S(=O)([O-])[O-].[Cu+2] [CuSO4, reference compound]",IC50 value S. obliqnus,S. obliqnus,0.99 ± 0.06 µg/mL
same,IC50 value M. aeruginosa,M. aeruginosa,1.29 ± 0.02 µg/mL
same,IC50 value C. pyrenoidosa,C. pyrenoidosa,1.56 ± 0.09 µg/mL
Cc1ccccc1NC(=O)c1csc([C@H](C)N)n1 [compound 21],IC50,M. aeruginosa,10.1 ± 1.71 µg/mL
same,IC50,C. pyrenoidosa,26.1 ± 3.25 µg/mL
